What is called mortality is the share of the test organisms that died. As usually defined, the inhibition is the change of the read-out against control, counted positive when it falls.

These results are taken from patent publication US20260206751A1, “NOVEL BICYCLIC-CARBOXAMIDE COMPOUNDS USEFUL AS PESTICIDES” (SYNGENTA CROP PROTECTION AG, priority 2022, published 2026).

Some results are limits rather than exact numbers.

Type in all cases: in vivo
Assay [1] has as its system Myzus persicae (Green Peach Aphid). In words: Myzus persicae (green peach aphid) feeding/contact activity, sunflower leaf discs. Particulars: foliar, 144 h, application rate 200 ppm, sprayed sunflower leaf discs, aphid population of mixed ages, 6 days after infestation. As to the method: Example B4: Myzus persicae (Green Peach Aphid):Feeding/Contact Activity
Sunflower leaf discs were placed onto agar in a 24-well microtiter plate and sprayed with aqueous test solutions prepared from 10,000 ppm DMSO stock solutions. After drying, the leaf discs were infested with an aphid population of mixed ages. The samples were assessed for mortality 6 days after infestation.

The test system of assay [2] is Diabrotica balteata (Corn Root Worm). The experiment in a line: Diabrotica balteata (corn root worm) feeding/contact activity. Particulars: 96 h, application rate 200 ppm, sprayed maize sprouts, L2 larvae, 4 days after infestation, read-out: effect in at least one of the two categories (mortality or growth inhibition). As to the method:
Example B1: Diabrotica balteata (Corn Root Worm) Feeding/Contact Activity
Maize sprouts placed onto an agar layer in 24-well microtiter plates were treated with aqueous test solutions prepared from 10,000 ppm DMSO stock solutions by spraying. After drying, the plates were infested with L2 larvae (6 to 10 per well). The samples were assessed for mortality and growth inhibition in comparison to untreated samples 4 days after infestation.

The subject of assay [3] is Euschistus heros (Neotropical Brown Stink Bug). In words: Euschistus heros (neotropical brown stink bug) feeding/contact activity. Particulars: 120 h, application rate 200 ppm, sprayed soybean leaves, N2 nymphs, 5 days after infestation, read-out: effect in at least one of the two categories (mortality or growth inhibition). The method, then:
Example B2: Euschistus heros (Neotropical Brown Stink Bug) Feeding/Contact Activity
Soybean leaves on agar in 24-well microtiter plates were sprayed with aqueous test solutions prepared from 10,000 ppm DMSO stock solutions. After drying the leaves were infested with N2 nymphs. The samples were assessed for mortality and growth inhibition in comparison to untreated samples 5 days after infestation.

Assay [4] relates to Frankliniella occidentalis (Western Flower Thrips). The experiment in a line: Frankliniella occidentalis (western flower thrips) feeding/contact activity. Particulars: foliar, 168 h, application rate 200 ppm, sprayed sunflower leaf discs, population of mixed ages, 7 days after infestation. As to the method:
Example B3: Frankliniella occidentalis (Western Flower Thrips): Feeding/Contact Activity
Sunflower leaf discs were placed on agar in 24-well microtiter plates and sprayed with aqueous test solutions prepared from 10,000 DMSO stock solutions. After drying the leaf discs were infested with a Frankliniella population of mixed ages. The samples were assessed for mortality 7 days after infestation.

The test system of assay [5] is Myzus persicae (Green Peach Aphid). The experiment in a line: Myzus persicae (green peach aphid) intrinsic activity. Particulars: 120 h, test rate 12 ppm, mixed with sucrose solution, Parafilm, infested pea seedlings, 5 days after infestation. The source says: Example B5: Myzus persicae (Green Peach Aphid). Intrinsic Activity
Test compounds prepared from 10,000 ppm DMSO stock solutions were applied by pipette into 24-well microtiter plates and mixed with sucrose solution. The plates were closed with a stretched Parafilm. A plastic stencil with 24 holes was placed onto the plate and infested pea seedlings were placed directly on the Parafilm. The infested plate was closed with a gel blotting paper and another plastic stencil and then turned upside down. The samples were assessed for mortality 5 days after infestation.

Assay [6] has as its system Plutella xylostella (Diamond Back Moth). The experiment in a line: Plutella xylostella (diamond back moth) feeding/contact activity. Particulars: 192 h, application rate 200 ppm, artificial diet, Plutella eggs, 8 days after infestation, read-out: effect in at least one of the two categories (mortality or growth inhibition). As to the method: Example B7: Plutella xylostella (Diamond Back Moth) Feeding/Contact Activity
24-well microtiter plates with artificial diet were treated with aqueous test solutions prepared from 10,000 ppm DMSO stock solutions by pipetting. After drying, Plutella eggs were pipetted through a plastic stencil onto a gel blotting paper and the plate was closed with it. The samples were assessed for mortality and growth inhibition in comparison to untreated samples 8 days after infestation.

Assay [7] deals with Spodoptera littoralis (Egyptian Cotton Leaf Worm). In words: Spodoptera littoralis (Egyptian cotton leaf worm) feeding/contact activity. Particulars: foliar, 72 h, application rate 200 ppm, sprayed cotton leaf discs, L1 larvae, 3 days after infestation, read-out: control (mortality, anti-feeding effect, growth inhibition). The method, then: Example B8: Spodoptera littoralis (Egyptian Cotton Leaf Worm) Feeding/Contact Activity
Cotton leaf discs were placed onto agar in 24-well microtiter plates and sprayed with aqueous test solutions prepared from 10,000 ppm DMSO stock solutions. After drying the leaf discs were infested with five L1 larvae. The samples were assessed for mortality, anti-feeding effect, and growth inhibition in comparison to untreated samples 3 days after infestation. Control of Spodoptera littoralis by a test sample is given when at least one of the categories mortality, anti-feedant effect, and growth inhibition is higher than the untreated sample.

In assay [8] the test system is Myzus persicae (Green Peach Aphid). In words: Myzus persicae (green peach aphid) feeding/contact activity, eggplant leaf discs. Particulars: foliar, 144 h, application rate 200 ppm, sprayed eggplant leaf discs, aphid population of mixed ages, 6 days after infestation, read-out: growth inhibition. The method, then:
Example B6: Myzus persicae (Green Peach Aphid) Feeding/Contact Activity Eggplant leaf discs were placed onto agar in a 24-well microtiter plate and sprayed with aqueous test solutions prepared from 10,000 ppm DMSO stock solutions. After drying, the leaf discs were infested with an aphid population of mixed ages. The samples were assessed for mortality 6 days after infestation.

Compound `Cc1c(OC[C@H](C)NS(=O)(=O)C(F)(F)F)cc(C(N)=O)c2c1CCC2` [P-1, 7-methyl-6-[(2S)-2-(trifluoromethylsulfonylamino)propoxy]indane-4-carboxamide] showed a mortality at 200 ppm in assay [1] not below 80%.

`CCN1OC[C@@H](NC(=O)c2cc(OC[C@H](C)NS(=O)(=O)C(F)(F)F)c(C)c3c2CCC3)C1=O` [P-2, N-[(4R)-2-ethyl-3-oxo-isoxazolidin-4-yl]-7-methyl-6-[(2S)-2-(trifluoromethylsulfonylamino)propoxy]indane-4-carboxamide] displayed a mortality at 200 ppm in assay [1] not below 80%.

In the case of `Cc1c(OC[C@H](C)NS(=O)(=O)C(F)(F)F)cc(C(=O)NC2CC2)c2c1CCC2` [P-3], the percent effect (mortality or growth inhibition) at 200 ppm in assay [2], in assay [3] and in assay [6] was not below 80% in each case. The mortality at 200 ppm in assay [4] and in assay [1] was not below 80% each time. In assay [5], the mortality at 12 ppm is not below 80%.

Compound `COC(=O)C1(NC(=O)c2cc(OC[C@H](C)NS(=O)(=O)C(F)(F)F)c(C)c3c2CCC3)CC1` [P-4, methyl 1-[7-methyl-6-[(2S)-2-(trifluoromethylsulfonylamino)propoxy]indane-4-carbonyl]amino] cyclopropanecarboxylate] returned a mortality at 200 ppm in assay [1] not below 80%. Further, the percent effect (mortality or growth inhibition) at 200 ppm in assay [6] was not below 80%.

In the case of `Cc1c(OC[C@H](C)NS(=O)(=O)C(F)(F)F)cc(C(=O)NC2(C(=O)O)CC2)c2c1CCC2` [P-5], in assay [1], the mortality at 200 ppm is not below 80%.

The compound `CO/N=C/NC(=O)c1cc(OC[C@H](C)NS(=O)(=O)C(F)(F)F)c(C)c2c1CCC2` [P-6, N-[(E)-methoxyiminomethyl]-7-methyl-6-[(2S)-2-(trifluoromethylsulfonylamino)propoxy]indane-4-carboxamide] yielded a mortality at 200 ppm in assay [1] not below 80%.

Take `Cc1c(OC[C@H](C)NS(=O)(=O)C(F)(F)F)cc(C(=O)NC2(C#N)CC2)c2c1CCC2` [P-7, N-(1-cyanocyclopropyl)-7-methyl-6-[(2S)-2-(trifluoromethylsulfonylamino)propoxy]indane-4-carboxamide]: the mortality at 200 ppm in assay [4] and in assay [1] was not below 80% each time. In assay [5], this compound had a mortality at 12 ppm not below 80%.

As for `C[C@@H](COc1cc2c(c(C(=O)NC3(C#N)CC3)c1)CCCC2)NS(=O)(=O)C(F)(F)F` [P-8, N-(1-cyanocyclopropyl)-7-[(2S)-2-(trifluoromethylsulfonylamino)propoxy]tetralin-5-carboxamide], the mortality at 200 ppm in assay [1] is not below 80%. The same compound returned a mortality at 12 ppm in assay [5] not below 80%. In assay [6], the percent effect (mortality or growth inhibition) at 200 ppm is not below 80%.

With `C[C@@H](COc1cc2c(c(C(=O)NC3CC3)c1)CCCC2)NS(=O)(=O)C(F)(F)F` [P-9, N-cyclopropyl-7-[(2S)-2-(trifluoromethylsulfonylamino)propoxy]tetralin-5-carboxamide], the mortality at 200 ppm in assay [1] was not below 80%. Besides, the mortality at 12 ppm in assay [5] is not below 80%. In addition, the percent effect (mortality or growth inhibition) at 200 ppm in assay [6] was not below 80%.

For `C[C@@H](COc1cc2c(c(C(=O)NC3(C#N)CCC3)c1)CCCC2)NS(=O)(=O)C(F)(F)F` [P-11, N-(1-cyanocyclobutyl)-7-[(2S)-2-(trifluoromethylsulfonylamino)propoxy]tetralin-5-carboxamide], the mortality at 12 ppm in assay [5] is not below 80%.

As to `C[C@@H](COc1cc2c(c(C(=O)NCC(F)(F)F)c1)CCCC2)NS(=O)(=O)C(F)(F)F` [P-15, N-(2,2,2-trifluoroethyl)-7-[(2S)-2-(trifluoromethylsulfonylamino)propoxy]tetralin-5-carboxamide], in assay [6], the percent effect (mortality or growth inhibition) at 200 ppm was not below 80%.

As for `C[C@@H](COc1cc2c(c(C(=O)Nc3ccc(F)cc3F)c1)CCCC2)NS(=O)(=O)C(F)(F)F` [P-22, N-(2,4-difluorophenyl)-7-[(2S)-2-(trifluoromethylsulfonylamino)propoxy]tetralin-5-carboxamide], the mortality at 200 ppm in assay [7] is not below 80%.

`C[C@@H](COc1cc2c(c(C(=O)NCc3ncccn3)c1)CCCC2)NS(=O)(=O)C(F)(F)F` [P-23, N-(pyrimidin-2-ylmethyl)-7-[(2S)-2-(trifluoromethylsulfonylamino)propoxy]tetralin-5-carboxamide] displayed a mortality at 200 ppm in assay [4] not below 80%.

Turning to `Cc1cc(F)ccc1NC(=O)c1cc(OC[C@H](C)NS(=O)(=O)C(F)(F)F)cc2c1CCCC2` [P-28, N-(4-fluoro-2-methyl-phenyl)-7-[(2S)-2-(trifluoromethylsulfonylamino)propoxy]tetralin-5-carboxamide], the percent effect (mortality or growth inhibition) at 200 ppm in assay [6] is not below 80%.

`C[C@@H](COc1cc2c(c(C(N)=O)c1)CCCC2)NS(=O)(=O)C(F)(F)F` [P-30, 7-[(2S)-2-(trifluoromethylsulfonylamino)propoxy]tetralin-5-carboxamide]: the inhibition at 200 ppm in assay [8] was not below 80%.

With `C[C@@H](COc1cc2c(c(C(=O)NC34CC(C3)C4)c1)CCCC2)NS(=O)(=O)C(F)(F)F` [P-32, N-(1-bicyclo[1.1.1]pentanyl)-7-[(2S)-2-(trifluoromethylsulfonylamino)propoxy]tetralin-5-carboxamide], the mortality at 12 ppm in assay [5] was not below 80%. Besides, the percent effect (mortality or growth inhibition) at 200 ppm in assay [6] was not below 80%.

For the compound `C[C@@H](COc1cc2c(c(C(=O)NC3CC3)c1)CCC2)NS(=O)(=O)C(F)(F)F` [P-33, N-cyclopropyl-6-[(2S)-2-(trifluoromethylsulfonylamino)propoxy]indane-4-carboxamide], the percent effect (mortality or growth inhibition) at 200 ppm in assay [3] was not below 80%. The inhibition at 200 ppm in assay [8] was not below 80%.

For `Cc1c(OC[C@H](C)NS(=O)(=O)C(F)(F)F)cc(C(=O)NCC(F)(F)F)c2c1CCC2` [P-39, 7-methyl-N-(2,2,2-trifluoroethyl)-6-[(2S)-2-(trifluoromethylsulfonylamino)propoxy]indane-4-carboxamide], the percent effect (mortality or growth inhibition) at 200 ppm in assay [6] is not below 80%.

`Cc1c(OC[C@H](C)NS(=O)(=O)C(F)(F)F)cc(C(=O)NC2CON(CC(F)(F)F)C2=O)c2c1CCC2` (stereo partly drawn) [P-40, 7-methyl-N-[3-oxo-2-(2,2,2-trifluoroethyl)isoxazolidin-4-yl]-6-[(2S)-2-(trifluoromethylsulfonylamino)propoxy]indane-4-carboxamide] showed a mortality at 12 ppm in assay [5] not below 80%. Besides, the percent effect (mortality or growth inhibition) at 200 ppm in assay [6] was not below 80%.

As to `Cc1c(OC[C@H](C)NS(=O)(=O)C(F)(F)F)cc(C(=O)NC23CC(C2)C3)c2c1CCC2` [P-41, N-(1-bicyclo[1.1.1]pentanyl)-7-methyl-6-[(2S)-2-(trifluoromethylsulfonylamino)propoxy]indane-4-carboxamide], the mortality at 12 ppm in assay [5] is not below 80%. Also, in assay [6], the percent effect (mortality or growth inhibition) at 200 ppm was not below 80%.

On to `Cc1cc(F)ccc1NC(=O)c1cc(OC[C@H](C)NS(=O)(=O)C(F)(F)F)c(C)c2c1CCC2` [P-42, N-(4-fluoro-2-methyl-phenyl)-7-methyl-6-[(2S)-2-(trifluoromethylsulfonylamino)propoxy]indane-4-carboxamide], for which, in assay [5], the mortality at 12 ppm is not below 80%.
